One compound from patent US6143732A, “Sesquiterpene derivatives” (priority 1997, dated 2000) can be followed below.

This assay relates to influenza A and B viruses. Briefly: Inhibitory activity against virus (general statement). It counts as cell-based. Conditions: statement in words.

As to `C[C@H]1CC[C@H]2C(C)(C)[C@@H](O)CC[C@]23Oc2c(c(O)cc4c2CNC4=O)C[C@]13C` [SQ-02-S5, (6a R, 7S, 9a S, 11 S, 13a S)-2,3,6,6a,7,8,9,9a,10,11,12,13-dodecahydro-5, 11-dihydroxy-6a, 7,10,10-tetramethyl-3-oxo-1H-benzo[8,8a][1]benzopyrano[2,3-e]isoindole], the “inhibitory activity against virus” value was “strong inhibitory activity against virus”.
